# Values of other authors as cited in PMC7584369, “Di-bromo-Based Small-Molecule Inhibitors of the PD-1/PD-L1 Immune Checkpoint” (Journal of Medicinal Chemistry, 2020).
# Tested on: PD-L1
# Conditions: several independent biophysical and cell-based assays; cited from earlier work
smiles,measurement,value
C[C@@H](O)[C@H](NC(=O)N[C@@H](CC(N)=O)c1nc([C@@H](N)CO)no1)C(=O)O [CA-170],direct binding to PD-L1,not a direct PD-L1-binder
